In ChEMBL document CHEMBL3351680, “Structure-based design, synthesis and biological evaluation of novel β-secretase inhibitors containing a pyrazole or thiazole moiety as the P3 ligand” (Bioorg Med Chem Lett, 2015) one finds Ki data, which are given here for eleven molecules.

Chain of Beta-secretase 1 (P56817 whole entry): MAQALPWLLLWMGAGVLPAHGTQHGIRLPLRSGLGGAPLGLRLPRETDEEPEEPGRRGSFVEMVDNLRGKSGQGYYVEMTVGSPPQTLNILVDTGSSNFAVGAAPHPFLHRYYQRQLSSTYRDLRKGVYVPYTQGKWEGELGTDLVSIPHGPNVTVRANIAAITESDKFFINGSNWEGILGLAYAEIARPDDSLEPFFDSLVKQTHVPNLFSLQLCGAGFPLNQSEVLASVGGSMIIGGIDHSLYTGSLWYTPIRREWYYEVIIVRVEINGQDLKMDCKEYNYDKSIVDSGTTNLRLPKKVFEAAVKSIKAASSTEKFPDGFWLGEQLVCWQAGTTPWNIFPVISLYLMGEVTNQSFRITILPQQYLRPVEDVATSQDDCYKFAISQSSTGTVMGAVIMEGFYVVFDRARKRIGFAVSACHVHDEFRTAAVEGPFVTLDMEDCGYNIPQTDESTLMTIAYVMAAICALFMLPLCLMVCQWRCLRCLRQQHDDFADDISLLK

The first experiment concerns the target Beta-secretase 1 (Homo sapiens, UniProt P56817). The experiment can be described thus: Inhibition of recombinant BACE1 (unknown origin).
As for `CC[C@@H](Cc1csc(C)n1)C(=O)N[C@@H](CNC(=O)OC(C)(C)C)C(=O)N[C@@H](CC(C)C)[C@@H](O)C[C@@H](C)C(=O)N[C@H](C(=O)NCC(C)C)C(C)C`, the inhibitory constant (Ki) (in general, the equilibrium dissociation constant of an inhibitor or competing ligand from its target) came out at 0.0168 µM.

With `Cc1csc(C[C@@H](C(=O)N[C@@H](CNC(=O)OC(C)(C)C)C(=O)N[C@@H](CC(C)C)[C@@H](O)C[C@@H](C)C(=O)N[C@H](C(=O)NCC(C)C)C(C)C)C(C)C)n1`, the inhibition constant Ki amounted to 0.0289 µM.

For the molecule `Cc1cc(C)n(C[C@H](C)C(=O)N[C@@H](CS(C)(=O)=O)C(=O)N[C@@H](CC(C)C)[C@@H](O)C[C@@H](C)C(=O)N[C@H](C(=O)NCC(C)C)C(C)C)n1`, the Ki stood at 0.192 µM.

`Cc1cc(C)n(C[C@H](CC(C)C)C(=O)N[C@@H](CNC(=O)OC(C)(C)C)C(=O)N[C@@H](CC(C)C)[C@@H](O)C[C@@H](C)C(=O)N[C@H](C(=O)NCC(C)C)C(C)C)n1`: the inhibition constant (Ki) came to 0.148 µM.

As for `CSC[C@H](NC(=O)[C@@H](C)Cn1nc(C)cc1C)C(=O)N[C@@H](CC(C)C)[C@@H](O)C[C@@H](C)C(=O)N[C@H](C(=O)NCC(C)C)C(C)C`, the Ki was determined as 0.0642 µM.

As for `Cc1ccn(C[C@H](C)C(=O)N[C@@H](CNC(=O)OC(C)(C)C)C(=O)N[C@@H](CC(C)C)[C@@H](O)C[C@@H](C)C(=O)N[C@H](C(=O)NCC(C)C)C(C)C)n1`, the inhibitory constant (Ki) is 0.201 µM.

As for `CC[C@@H](Cn1nc(C)cc1C)C(=O)N[C@@H](CNC(=O)OC(C)(C)C)C(=O)N[C@@H](CC(C)C)[C@@H](O)C[C@@H](C)C(=O)N[C@H](C(=O)NCC(C)C)C(C)C`, the Ki stood at 0.0631 µM.

`Cc1nc(C[C@H](C)C(=O)N[C@@H](CNC(=O)OC(C)(C)C)C(=O)N[C@@H](CC(C)C)[C@@H](O)C[C@@H](C)C(=O)N[C@H](C(=O)NCC(C)C)C(C)C)cs1`: the Ki came to 0.0319 µM.

With `Cc1cc(C)n(C[C@@H](C(=O)N[C@@H](CNC(=O)OC(C)(C)C)C(=O)N[C@@H](CC(C)C)[C@@H](O)C[C@@H](C)C(=O)N[C@H](C(=O)NCC(C)C)C(C)C)C(C)C)n1`, the inhibitory constant (Ki) amounted to 0.471 µM.

As for `CC[C@@H](Cc1nc(C)cs1)C(=O)N[C@@H](CNC(=O)OC(C)(C)C)C(=O)N[C@@H](CC(C)C)[C@@H](O)C[C@@H](C)C(=O)N[C@H](C(=O)NCC(C)C)C(C)C`, the Ki was 0.0108 µM.

As for `Cc1csc(C[C@H](C)C(=O)N[C@@H](CNC(=O)OC(C)(C)C)C(=O)N[C@@H](CC(C)C)[C@@H](O)C[C@@H](C)C(=O)N[C@H](C(=O)NCC(C)C)C(C)C)n1`, the Ki came to 0.00025 µM.

The target of the next experiment is T1, Beta-secretase 2 (Homo sapiens, UniProt Q9Y5Z0).
T1 sequence (Q9Y5Z0 whole entry): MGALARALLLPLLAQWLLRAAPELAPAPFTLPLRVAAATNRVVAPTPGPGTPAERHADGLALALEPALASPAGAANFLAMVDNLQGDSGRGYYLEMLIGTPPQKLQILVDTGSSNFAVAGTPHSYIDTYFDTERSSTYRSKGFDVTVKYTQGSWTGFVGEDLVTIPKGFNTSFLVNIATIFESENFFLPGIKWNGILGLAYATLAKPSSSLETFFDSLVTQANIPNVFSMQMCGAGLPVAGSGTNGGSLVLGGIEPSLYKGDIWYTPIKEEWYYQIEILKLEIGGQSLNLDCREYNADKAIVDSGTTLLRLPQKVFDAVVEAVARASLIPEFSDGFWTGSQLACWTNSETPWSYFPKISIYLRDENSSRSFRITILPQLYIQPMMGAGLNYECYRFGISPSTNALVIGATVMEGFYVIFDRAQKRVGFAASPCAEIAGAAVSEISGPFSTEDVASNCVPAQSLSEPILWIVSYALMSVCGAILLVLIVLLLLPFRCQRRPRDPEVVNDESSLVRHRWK
Nature of the experiment: Inhibition of memapsin 1 (unknown origin).
Take `Cc1csc(C[C@H](C)C(=O)N[C@@H](CNC(=O)OC(C)(C)C)C(=O)N[C@@H](CC(C)C)[C@@H](O)C[C@@H](C)C(=O)N[C@H](C(=O)NCC(C)C)C(C)C)n1`: the inhibition constant Ki worked out at 0.071 µM.

A further experiment deals with Cathepsin D (Homo sapiens, UniProt P07339). The experiment can be described thus: Inhibition of Cathepsin D (unknown origin).
Chain of Cathepsin D (P07339 65-162 limits assumed): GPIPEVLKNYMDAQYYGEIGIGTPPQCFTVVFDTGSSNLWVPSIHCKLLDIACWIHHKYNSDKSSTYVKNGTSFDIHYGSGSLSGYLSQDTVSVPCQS
Chain of Cathepsin D (P07339 169-412 limits assumed): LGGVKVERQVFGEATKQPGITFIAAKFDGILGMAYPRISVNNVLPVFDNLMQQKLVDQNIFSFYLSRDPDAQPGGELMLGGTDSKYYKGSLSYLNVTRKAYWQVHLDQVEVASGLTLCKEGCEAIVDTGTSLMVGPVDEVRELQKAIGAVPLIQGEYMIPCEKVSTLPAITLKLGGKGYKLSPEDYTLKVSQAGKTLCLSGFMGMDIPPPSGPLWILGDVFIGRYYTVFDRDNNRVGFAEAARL
In the case of `Cc1csc(C[C@H](C)C(=O)N[C@@H](CNC(=O)OC(C)(C)C)C(=O)N[C@@H](CC(C)C)[C@@H](O)C[C@@H](C)C(=O)N[C@H](C(=O)NCC(C)C)C(C)C)n1`, the inhibition constant Ki came out at 0.00125 µM.
